The record followed here is PMC8875508, “Cytotoxic Phenylpropanoid Derivatives and Alkaloids from the Flowers of Pancratium maritimum L” (Plants, 2022).

A value given as a limit tells only on which side of the number the result lay.

Common to all, as to format: cell-based
The subject of one assay is MDA-MB-231 cells. Nature of the assay: MTT antiproliferative assay, MDA-MB-231. To be noted: Homo sapiens, 72 h, mean of three independent experiments, cutoff 10 µM, read-out: IC50 (Mean + SEM). The method, then: (§1) HCT116 (Colorectal carcinoma, ATCC CCL-247) and HeLa (human cervical carcinoma, ATCC CCL-2) cells were cultured in RPMI 1640 medium with 10% FBS, and 1% penicillin–streptomycin, while MDA-MB-231 cells (triple-negative breast cancer, ATCC HTB-26) were cultured in DMEM medium with 1% penicillin–streptomycin and 10% FBS.
(§2) The evaluation of the antiproliferative effects compounds 1–7 were performed using MTT assay, as reported earlier. In short, the cells were incubated at 37 °C overnight in 5% CO2/air. After that, the compounds were added at the top row of a 96-well microtiter plate; a descendant serial dilution (1:4) of the concentration was performed followed by incubation of the cells with the compounds for 72 h. Using the Cell Titer 96 AQueous non-radioactive cell proliferation protocol, the cell viability was estimated at 490 nm on a Molecular Devices Emax microplate reader. The IC50 values of the compounds (expressed in μM) were evaluated using the program SoftMax Pro. A concentration of 10 µM was set as a cutoff value in this assay.
Background: Tetrazolium dyes change colour on reduction, which living cells bring about.

A further assay relates to HeLa cells. The assay can be described thus: MTT antiproliferative assay, HeLa. The note with it: Homo sapiens, 72 h, mean of three independent experiments, cutoff 10 µM, read-out: IC50 (Mean + SEM). How it is done:
as §1, §2

For the next assay, the system named is HCT 116 cells. Nature of the assay: MTT antiproliferative assay, HCT 116. The note with it: Homo sapiens, 72 h, mean of three independent experiments, cutoff 10 µM, read-out: IC50 (Mean + SEM). The method, then: as §1, §2
Assay [1] has as its system normal human dermal fibroblasts (NHDF). The assay can be described thus: MTT assay, normal human dermal fibroblasts. The method, then: The normal human dermal fibroblasts (NHDF) cells were cultured in fibroblast basal medium complemented with penicillin–streptomycin (1% v/v), insulin (5 µg/mL), heat-inactivated fetal bovine serum (FBS) (2% v/v), and basic fibroblast growth factor (1 ng/mL).
as §2

Assay [2] concerns HCT116, HeLa, and MDA-MB-231 cell lines. The assay can be described thus: MTT assay, average over the cancerous cell lines. The note with it: Homo sapiens; average of HCT116, HeLa and MDA-MB-231; read-out: average IC50 against the cancerous cell lines. The method, then: as §1, §2

By IC50 is commonly meant the midpoint of a concentration-inhibition curve. Consider `COc1ccc(CCCO[C@@H]2O[C@H](CO)[C@@H](O)[C@H](O)[C@H]2O)cc1` [Compound 3, 3-(4-methoxyphenyl)propan-1-ol-1-O-β-D-glucopyranoside], for which the half-maximal inhibitory concentration (IC50) in the assay on MDA-MB-231 cells, in the assay with HeLa cells and in the assay with HCT 116 cells was no less than 10 µM throughout.
For the compound `O=C1N[C@H]2[C@H](O)[C@H](O)[C@@H](O)[C@H](O)[C@@H]2c2cc3c(c(O)c21)OCO3` [Compound 7, pancratistatin], the IC50 with MDA-MB-231 cells came out at 0.14 ± 0.002 µM; in the assay on HeLa cells, 0.058 ± 0.001 µM; with HCT 116 cells, 0.1 ± 0.005 µM; in assay [1] (Homo sapiens, NHDF, MTT, 72 h, mean of three independent experiments, read-out: IC50 (Mean + SEM)) it was 6.6 ± 0.034 µM; in assay [2], 0.099 µM. The “selectivity towards the tested cancer cell lines versus NHDF” value in assay [1] (NHDF IC50 6.6 µM versus average IC50 0.099 µM of the cancer cell lines) was 66 fold.
Turning to `O=c1[nH]cc(F)c(=O)[nH]1` [Compound 5-FU, 5-Fluorouracil, reference compound], the IC50 turned out to be 13 ± 0.3 µM in the assay with MDA-MB-231 cells, 12.3 ± 0.25 µM in the assay on HeLa cells and 4.6 ± 0.23 µM in the assay on HCT 116 cells.
For `COC(=O)c1ccc(O[C@@H]2O[C@H](CO)[C@@H](O)[C@H](O)[C@H]2O)c(OC)c1` [Compound 2, 3-methoxy-4-(β-D-glucopyranosyloxy)benzoic acid methyl ester], the IC50 in the assay with MDA-MB-231 cells, with HeLa cells and with HCT 116 cells was no less than 10 µM throughout.
Regarding `O=C(O)/C=C/c1ccc(O)c(O)c1` [Compound 5, caffeic acid], the half-inhibitory concentration (IC50) in the assay on MDA-MB-231 cells, in the assay on HeLa cells and with HCT 116 cells was no less than 10 µM throughout.
`COC(=O)/C=C\c1ccc(O[C@@H]2O[C@H](CO)[C@@H](O)[C@H](O)[C@H]2O)cc1` [Compound 1, 3-[4-(β-D-glucopyranosyloxy)phenyl]-2-(Z)-propenoic acid methyl ester]: the 50% inhibitory concentration (IC50) with MDA-MB-231 cells, in the assay with HeLa cells and in the assay on HCT 116 cells was no less than 10 µM in each case.
